# Source: US9888679B2, “Protection of progenitor cells and regulation of their differentiation” (Proteobioactives Pty Ltd, priority 2007, dated 2018)
# Assays:
# [1] = system: Primary human progenitor cells; experiment: Progenitor cell proliferation, WST-1 assay; assay type: cell-based; conditions: FIG. 4
# Procedure: FIG. 4. The Effects of Pentosan Polysulfate (PPS) on Human Progenitor cell Proliferation. Primary human progenitor cells were cultured in 24 well plates in growth media supplemented with PPS at the indicated concentrations. At various time intervals (day 1, 3, 6), the growth media was removed and replaced with phenol red free media containing the tetrazolium salt WST-1 for 2 hours at 37° C./5% CO2. WST-1 is cleaved by mitochondrial dehydrogenase in viable cells to produce a formazan dye that can be detected using an ELISA plate reader at a wavelength of 450 nm. Absorbance at 450 nm for each time point is shown for all concentrations of PPS.
# FIG. 20. […] At various time intervals (day 3 & 5), the growth media was removed and replaced with phenol red free media containing the tetrazolium salt WST-1 for 2 hours at 37° C./5% CO2. Absorbance at 450 nm for each time point is shown for all concentrations of PPS and HA.
# Primary human progenitor cells were cultured in 24 well plates in growth media supplemented with PPS at the indicated concentrations. At various time intervals (day 1, 3, 6), the growth media was removed and replaced with phenol red free media containing the tetrazolium salt WST-1 for 2 hours at 37° C./5% CO2. WST-1 is cleaved by mitochondrial dehydrogenase in viable cells to produce a formazan dye that can be detected using an ELISA plate reader at a wavelength of 450 nm. Absorbance at 450 nm for each time point is shown for all concentrations of PPS.
# [2] = system: Primary human progenitor cells; experiment: Differentiation in osteogenic media: mineralisation assay; assay type: cell-based; conditions: for differentiation into osteoblasts/osteocytes: osteogenic media, particularly at 1 and 10 micrograms PPS/mL, FIG. 7
# Procedure: FIG. 7. The Effects of Pentosan Polysulfate (PPS) on Human progenitor cell Differentiation: Mineralisation Assay. Primary human progenitor cells were cultured in 96 wells plates in non-osteoinductive growth media (media control) or in osteoinductive conditions (alphaMEM supplemented with 10% FCS, 100 microM L-ascorbate-2-phosphate, dexamethasone 10^−7 M and 3 mM inorganic phosphate) in the presence of PPS at the indicated concentrations. On day 28, the concentration of acid solubilisd calcium per well was determined using the Cresolphthalein Complexone method. (A) The concentration of acid solubilised calcium per microg of DNA/well was determined following the assessment of the total amount of DNA per well using a fluorogenic DNA stain (Hoeshst 33258). […] (B) Phase-contrast photomicrographs of mineralised cultures at ×20 magnification.
# The conditions necessary for the induction of human progenitor cells to develop mineralised bone matrix in vitro have been previously described (Gronthos S, A C Zannettino, S J Hay, S Shi, S E Graves, A Kortesidis and P J Simmons. (2003). Molecular and cellular characterisation of highly purified stromal stem cells derived from human bone marrow. J Cell Sci 116:1827-1835). The osteoinductive media consists of alpha-MEM media supplemented with 2% (v/v) FCS, 1.8 mM KH2PO4, 10-7 dexamethasone sodium phosphate, 50 IU/ml penicillin, 50 μg/mL streptomycin, 1 mM Sodium Pyruvate, 100 μM L-Ascorbic acid 2-phosphate, 2 mM L-glutamine and 10 mM HEPES buffer. […]
# Total mineral content per well in the above cultures was assessed by measuring the calcium levels per total DNA in each well. […] The acid-solubilzed mineral 23 was transferred to a new 96-well plate and reacted with o-cresol-phthalein-complexone (Thermal Electron Corporation, USA) to form a purple dye that was measured at 570 nm using an EL 808 Ultra Microplate Reader. […] Absolute absorbance was determined by measuring against a series of DNA standards at 350 nm by LS55 Luminescence Spectrometer (Perkin Elmer).
substance,measurement,setting,value
pentosan polysulfate [PPS],cell division (WST-1 cleavage assay),"[1]; 1-5 micrograms/mL, monolayer",Marked stimulation of cell division
same,"proliferation (WST-1, absorbance at 450 nm)","[1]; day 6, PPS in excess of 1 μg/ml, p<0.01, ANOVA",statistically significant increase in proliferation
same,differentiation into osteoblasts/osteocytes,[2],suppressed differentiation into osteocytes
same,differentiation into osteoblasts/osteocytes,[2]; listed as polysulfated polysaccharides,suppress differentiation of progenitor cells to this cell phenotype
same,calcified deposits in cultures (photomicrographs),"[2]; osteoinductive conditions, FIG. 7B",no calcified deposits are present
